Reference: BindingDB's records for doi:10.1074/jbc.M606784200 (Chul, 2007)

Columns and labels:
[1] = target: T1, Aldo-keto reductase family 1 member C3 (Homo sapiens, UniProt P42330); experiment: Scintillation Proximity Assay (SPA); details: pH 6; 22 °C
T1 sequence (P42330 whole entry): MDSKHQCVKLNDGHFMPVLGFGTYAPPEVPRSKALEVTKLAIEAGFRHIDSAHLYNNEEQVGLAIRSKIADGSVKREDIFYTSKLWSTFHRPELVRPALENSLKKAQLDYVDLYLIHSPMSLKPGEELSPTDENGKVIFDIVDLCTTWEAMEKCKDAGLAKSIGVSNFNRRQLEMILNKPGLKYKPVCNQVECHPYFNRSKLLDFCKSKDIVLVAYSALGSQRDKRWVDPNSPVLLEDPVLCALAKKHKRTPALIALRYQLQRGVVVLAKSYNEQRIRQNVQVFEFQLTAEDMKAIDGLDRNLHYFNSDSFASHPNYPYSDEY
Method: SPA beads conjugated to anti-mouse IgG were incubated overnight in buffer with anti-testosterone monoclonal antibody. The enzymatic reaction was monitored by its conversion of 4-androstene-3, 17-dione to testosterone. The amount of [14C] testosterone produced in each well was determined by scintillation counting on a Perkin Elmer TopCount instrument and collected as DPMs. The data was then analyzed and percent inhibition and/or IC50 values, based on 10 point serially diluted curves in duplicate or triplicate, were calculated using Microsoft Excel and XLFit programs.

[2] = target: T1, Aldo-keto reductase family 1 member C3; experiment: Inhibition Study on the Interconversion of Testosterone to Androstenedione (4-dione); details: pH 7.5; 37 °C
Method: A radioactive assay was used for the enzyme kinetics in the presence of EM1404 at different concentrations for its Ki determination. Reactions were initiated by the addition of enzyme to the reaction mixture containing substrate and test compounds. After the reaction, the steroids were extracted, separated by TLC migration, and analyzed by phosphorimaging. The Km for testosterone oxidation in the absence of EM-1404, and four apparent Km values in the presence of 1, 3, 10, and 25 nM EM-1404, were determined. Ki value was further determined by a plot of Km vs. the inhibitor concentration.

SMILES	IC50 [1] [nM]	Ki [2] [nM]
COCCOc1cc2c(cc1C(=O)ON)C1CC[C@@]3(C)C(CC[C@@]34CCC(C)(C)C(=O)O4)C1CC2 (stereo partly drawn) [(2R,15'S)-5'-(2-methoxyethoxy)-5,5,15'-trimethyl-6-oxospiro[oxane-2,14'-tetracyclo[8.7.0.0^{2,7}.0^{11,15}]heptadecane]-2',4',6'-triene-4'-carboxylate]	9.5	
CC1(C)CC[C@@]2(CCC3C4CCc5cc(C(N)=O)ccc5C4CC[C@@]32C)OC1=O (stereo partly drawn) [(2R,15'S)-5,5,15'-trimethyl-6-oxospiro[oxane-2,14'-tetracyclo[8.7.0.0^{2,7}.0^{11,15}]heptadecane]-2',4',6'-triene-5'-carboxamide]	3.2	6.9
